This note sets out measurements from ChEMBL document CHEMBL1151440, “Safety and pharmacokinetics of GSK364735, a human immunodeficiency virus type 1 integrase inhibitor, following single and repeated administration in healthy adult subjects” (Antimicrob Agents Chemother, 2007).

Series [1] is described as follows: Cmax in human at 50 mg administered with fat meal every 12 hrs for 8 days measured on day 8. The format is ADME, organism-based. On the set-up: dose 50 mg. The conditions noted are these: in vivo.
A short description of series [2]: Cmax in human at 50 mg administered with fat meal every 12 hrs for 8 days measured on day 1. The settings on record: in vivo. The series is classed as ADME, organism-based. On the set-up: dose 50 mg.
In series [3] the test system is Homo sapiens. The experiment in a line: Toxicity in human assessed as flatulence at 50 to 200 mg administered as single dose. The series is classed as organism-based. The settings on record: in vivo.
Series [4] can be described thus: Terminal elimination half life in human at 400 mg administered with fat meal daily for 8 days measured on day 1. The format is ADME, organism-based. The conditions noted are these: in vivo, read-out: beta t1/2 (converted).
The species named for series [5] is Homo sapiens. In words: Toxicity in human assessed as headache at 400 mg daily for 8 days. The series is classed as organism-based. The settings on record: in vivo, 192 h.
A short description of series [6]: Apparent oral clearance in human at 50 mg administered with fat meal every 12 hrs for 8 days measured on day 1. The format is ADME, organism-based. The settings on record: in vivo.
Series [7] relates to Homo sapiens. The experiment in a line: Toxicity in human assessed as dizziness at 50 mg administered every 12 hrs for 8 days. The format is organism-based. The settings on record: in vivo.
A short description of series [8]: Oral bioavailability rat. The series is classed as ADME, organism-based. The conditions noted are these: in vivo.
The subject of series [9] is Homo sapiens. In words: Toxicity in human assessed as dizziness at 200 mg administered every 12 hrs for 8 days. The format is organism-based. The conditions noted are these: in vivo.

SMILES strings stand for the structures.

A word on the Cmax: it is the peak of the concentration-time curve. The CL/F is clearance divided by bioavailability, as obtained after extravascular dosing. Usually bioavailability stands for the share of a dose that reaches the circulation, judged against a reference dose that is usually intravenous. Lower therefore signals little systemic uptake. Take `Cn1c(=O)c(C(=O)NCCO)c(O)c2ncc(Cc3ccc(F)cc3)cc21` [GSK-364735]: the Cmax in series [1] amounted to 1400 ng/mL; in series [2], 740 ng/mL. In addition, the Activity in series [3] was 4%; in series [5] it was “Non-toxic”; in series [7] it was “Non-toxic”; in series [9], “Non-toxic”. Also, the half-life in series [4] was 4.1 h. The CL/F in series [6] was 217 mL/min. Further, the bioavailability in series [8] worked out at 6%.
